# Measurements from patent publication US7629376B2, “3-substituted-5- and 6-aminoalkyl indole-2-carboxylic acid amides and related analogs as inhibitors of casein kinase I” (Aventis Pharmaceuticals Inc., priority 2004, dated 2009).
# pKi: −log10 of the molar value.
# Columns and labels:
# [1] = target: T1, casein kinase 1ε (Homo sapiens, UniProt P49674); experiment: Casein Kinase Epsilon 33P-ATP Filter Plate Assay for Screening CK1ε Inhibitors; format: biochemical
# T1 construct: made in house
# Description: Casein Kinase Epsilon ^33P-ATP Filter Plate Assay for Screening CK1ε Inhibitors
# Purpose: This assay measures the ability of compounds to inhibit the phosphorylation of the substrate casein by the enzyme casein kinase 1ε using an in vitro ^33P-ATP filtration assay.
# The above are stored as 100 μL aliquots at minus 80° C. • Compounds: • Supply compounds for testing as frozen 10 mM compound stock dissolved in 100% DMSO. Assay Conditions: • Final total assay volume per well is equal to 50 μL that one prepares as follows: • 5 μL of diluted compound stock (10, 1, 0.1, 0.01 or 0.001 μM), • 5 μL of dephosphorylated casein final concentration 0.2 μg/μL, • 20 μL of CK1ε final concentration 3 ng/μL, and • 20 μL of γ-^33P-ATP final concentration 0.02 μCi/μL mixed with cold ATP (10 μM final). Methodology: • 1. Prepare 500 mL of fresh assay buffer: 50 mM Tris pH 7.5, 10 nm MgCl2, 2 mM DTT and 1 mM EGTA • 2. Obtain compounds to be evaluated as 10 μL of 10 mM stock dissolved in 100% DMSO. Use a Biomek 2000 liquid handling robot, make serial dilutions to yield 10, 1, 0.1, 0.01 and 0.001 μM final compound dilutions added as 5 μL additions to Falcon U bottom plates. […] A routine screening assay will consist of 32 compounds, which equals 4 assay plates. • 3.
# • 4. Add 5 μL of compound as indicated, then add 5 μL of dephosphorylated casein (dissolved in distilled H20) (0.2 μg/μL) and 20 μL CK1ε (3 ng/μL) to the appropriate wells. • 5. Finally add 20 μL γ-^33P-ATP (0.02 μCi/μL)/10 μM cold ATP (equals approximately 2×10^6 CPM per well). • 6. Vortes the Falcon U-Bottom assay plate containing the above 50 μL reaction volume and then incubate at room temperature for 2 hours. • 7. At the end of 2 hours, stop the reaction by the addition of 65 μL of ice cold 2 mM cold ATP (made up in assay buffer) to the assay plates using a Beckman Multimek. • 8. At the same time add 25 μL 100% ice cold TCA made up in distilled H20 to a matching number of Millipore MAPH filter plates. • 9. Using a handheld 8-channel pipettor, transfer 100 μL of the reaction mixture from the Falcon U-Bottom Plate to the Millipore MAPH filter plates presoaked with TCA. • 10. Mix the Millipore MAPH filter plates gently and allow to sit at room temperature for at least 30 minutes to precipitate the proteins. • 11. After 30 minutes, place the filter plates on a Millipore vacuum manifold and filter at no more than 8 mm Hg as the MAPH filters tend to “air lock” at higher vacuum settings. • 12. […] Allow the plates to dry overnight at room temperature. The next day add 40 μL Packard Microscint-20 Scintillation Fluid per well using a Titertek Multidrop dispenser; seal the plates and count for 2 minutes/well in a Packard Topcount NXT Scintillation Counter (to provide CPM values/well). Calculation: • 1. Import Counts Per Minute (CPM) data into a proprietary data calculation and archiving database (Activity Base by IDBS version 5.0). • 2. Column 1 for each plate reflects total phosphorylation activity of the enzyme in the absence of any inhibiting compound and thus represents 100%. Column 12 reflects any nonspecific phosphorylation/retained radioactivity activity in the absence of inhibiting compound and enzyme. Typically one observes approximately 1% of Total CPMs that are “nonspecific”. • 3.
# [2] = system: Mper1-luc Rat-1 fibroblasts (P2C4); experiment: Cellular Circadian Assay (Mper1-luc reporter period lengthening); format: cell-based; settings: effective micromolar concentration that induces a 1 hour lengthening of period
# Description: Cellular Circadian Assay Experimental Procedures
# Stable transfection: Co-transfect Rat-1 fibroblast cultures at 30-50% confluence with vectors containing the Zeocin resistance selectable marker for stable transfection and an mPer1 promoter-driven luciferase reporter gene. After 24-48 hours, split the cultures onto 96 well plates and maintain in growth media supplemented with 50-100 μg/mL Zeocin (Invitrogen #45-0430) for 10-14 days. Assess Zeocin-resistant stable transfectants for reporter expression by supplementing growth media with 100 μM luciferin (Promega #E1603) and assaying luciferase activity on a TopCount scintillation counter (Packard Model #C384V00). […] Select Mper1-luc Rat-1 fibroblasts clone P2C4 for compound testing.
# After synchronization, rinse cultures with 100 μL EMEM (Cellgro #10-010-CV) for 10 minutes at room temperature. […] Add compounds to be tested for circadian effects to CO2-independent media in 0.3% DMSO (final concentration).
# Estimate in vivo luciferase activity by measuring relative light output on a TopCount scintillation counter (Packard Model #C384V00). Transfer plates from incubator to reader using an ORCA robotic arm (Beckman Instruments) and SAMI-NT automated scheduling software (Version 3.3; SAGIAN/Beckman Instruments).
# Data Analysis Use Microsoft Excel and XLfit (Version 2.0.9; IDBS) to import, manipulate and graph data. Perform period analysis either by determining the interval between relative light output minima over several days or by Fourier Transform. […] Analyze the data by fitting a hyperbolic curve to the data expressed as period change (y-axis) versus the concentration of test compound (x-axis) in XLfit and interpolate the EC ? t+1h from this curve.
# T1 sequence (P49674 whole entry): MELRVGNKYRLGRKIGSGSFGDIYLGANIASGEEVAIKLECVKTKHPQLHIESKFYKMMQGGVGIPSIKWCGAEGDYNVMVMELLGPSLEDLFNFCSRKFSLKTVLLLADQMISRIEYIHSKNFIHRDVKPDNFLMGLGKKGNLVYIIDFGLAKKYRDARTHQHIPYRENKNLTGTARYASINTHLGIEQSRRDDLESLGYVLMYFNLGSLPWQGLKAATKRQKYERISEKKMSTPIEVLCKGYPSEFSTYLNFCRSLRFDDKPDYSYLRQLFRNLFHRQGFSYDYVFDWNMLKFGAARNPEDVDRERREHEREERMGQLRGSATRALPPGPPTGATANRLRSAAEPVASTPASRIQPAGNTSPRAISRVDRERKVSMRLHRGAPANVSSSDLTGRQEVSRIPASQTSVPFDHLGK
melting point [°C],SMILES,pKi [1],Cell Assay ECΔτ1h [2] [µM]
118 to 121,"CC(C)(C)OC(=O)NCc1ccc2c(Sc3ccccc3)c(C(N)=O)[nH]c2c1 [IIb, (2-Carbamoyl-3-phenylsulfanyl-1H-indol-6-ylmethyl)-carbamic acid tert-butyl ester]",5.63,–
–,"NC(=O)c1[nH]c2ccc(CN3CCN(c4ncccn4)CC3)cc2c1Sc1ccccc1 [Ip, 3-Phenylsulfanyl-5-(4-pyrimidin-2-yl-piperazin-1-ylmethyl)-1H-indole-2-carboxylic acid amide]",7.13,1.87
–,"NC(=O)c1[nH]c2ccc(CN3CCN(CC=Cc4ccccc4)CC3)cc2c1Sc1ccccc1 [Iq, 5-[4-(3-Phenylpropenyl)piperazin-1-ylmethyl]-3-phenylsulfanyl-1H-indole-2-carboxylic acid amide]",6.51,>3
–,"CC(C)(C)OC(=O)N1CCCN(Cc2ccc3[nH]c(C(N)=O)c(Sc4ccccc4)c3c2)CC1 [Ir, 4-(2-Carbamoyl-3-phenylsulfanyl-1H-indol-5-ylmethyl)-[1,4]diazepane-1-carboxylic acid tert-butyl ester]",6.89,>10
–,"NC(=O)c1[nH]c2ccc(CN3CCCNCC3)cc2c1Sc1ccccc1 [Is, 5-[1,4]Diazepan-1-ylmethyl-3-phenylsulfanyl-1H-indole-2-carboxylic acid amide]",6.92,7.85
–,NC(=O)c1[nH]c2ccc(CNC3CC4CCC3C4)cc2c1Sc1ccccc1 (centres unmarked) [It],6.35,2.70
192.7 to 193.6,"CC(CO)NCc1ccc2[nH]c(C(N)=O)c(Sc3ccccc3)c2c1 (centres unmarked) [Ix, 5-[(2-Hydroxy-1-methyl-ethylamino)methyl]-3-phenylsulfanyl-1H-indole-2-carboxylic acid amide]",6.89,–
